Measured values taken from ChEMBL document CHEMBL5291721, “A preclinical secondary pharmacology resource illuminates target-adverse drug reaction associations of marketed drugs” (Nat Commun, 2023).

What was measured:
Androgen receptor = molecular target: T1, Androgen receptor (Homo sapiens, UniProt P10275)
T1 sequence (P10275 whole entry): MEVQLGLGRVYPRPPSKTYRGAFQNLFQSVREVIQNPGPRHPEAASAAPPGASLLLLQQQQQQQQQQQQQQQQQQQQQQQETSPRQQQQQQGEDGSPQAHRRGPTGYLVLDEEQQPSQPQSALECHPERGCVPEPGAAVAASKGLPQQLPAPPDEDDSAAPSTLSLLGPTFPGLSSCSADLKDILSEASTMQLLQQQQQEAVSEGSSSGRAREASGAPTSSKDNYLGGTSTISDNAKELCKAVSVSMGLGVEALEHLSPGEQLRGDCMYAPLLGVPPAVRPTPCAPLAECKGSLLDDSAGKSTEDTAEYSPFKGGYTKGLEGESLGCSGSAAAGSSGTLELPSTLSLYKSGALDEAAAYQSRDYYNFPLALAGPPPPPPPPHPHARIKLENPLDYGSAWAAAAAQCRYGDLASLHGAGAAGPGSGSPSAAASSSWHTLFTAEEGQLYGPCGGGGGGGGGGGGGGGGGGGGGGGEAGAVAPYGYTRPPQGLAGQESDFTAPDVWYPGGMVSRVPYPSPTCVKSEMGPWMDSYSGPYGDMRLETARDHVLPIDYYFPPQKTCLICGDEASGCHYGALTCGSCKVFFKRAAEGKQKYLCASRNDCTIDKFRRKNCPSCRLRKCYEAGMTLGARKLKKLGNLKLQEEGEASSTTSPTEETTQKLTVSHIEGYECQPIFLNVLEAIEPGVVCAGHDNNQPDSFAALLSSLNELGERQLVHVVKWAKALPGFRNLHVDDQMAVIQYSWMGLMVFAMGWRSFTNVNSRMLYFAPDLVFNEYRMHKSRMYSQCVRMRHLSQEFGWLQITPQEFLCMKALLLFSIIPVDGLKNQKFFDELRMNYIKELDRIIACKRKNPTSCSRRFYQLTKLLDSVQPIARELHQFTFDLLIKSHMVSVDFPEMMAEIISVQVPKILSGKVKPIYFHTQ

[1] = molecular target: T2, Alpha-1A adrenergic receptor (Homo sapiens, UniProt P35348); assay type: functional, cell-based
T2 sequence (P35348 whole entry): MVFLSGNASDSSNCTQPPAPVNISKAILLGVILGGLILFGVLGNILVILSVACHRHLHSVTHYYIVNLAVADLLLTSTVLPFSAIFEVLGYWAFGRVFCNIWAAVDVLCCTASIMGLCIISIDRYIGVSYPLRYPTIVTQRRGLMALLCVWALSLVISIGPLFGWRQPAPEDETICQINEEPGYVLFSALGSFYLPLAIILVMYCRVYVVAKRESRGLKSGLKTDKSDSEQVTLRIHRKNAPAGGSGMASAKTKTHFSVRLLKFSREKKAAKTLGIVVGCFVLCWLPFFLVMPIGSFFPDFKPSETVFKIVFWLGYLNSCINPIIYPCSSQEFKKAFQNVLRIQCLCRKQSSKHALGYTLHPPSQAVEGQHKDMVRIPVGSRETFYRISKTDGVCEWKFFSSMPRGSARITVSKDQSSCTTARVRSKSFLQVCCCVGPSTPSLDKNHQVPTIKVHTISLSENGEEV

[2] = molecular target: T3, Muscarinic acetylcholine receptor M1 (Homo sapiens, UniProt P11229); assay type: functional, cell-based
T3 sequence (P11229 whole entry): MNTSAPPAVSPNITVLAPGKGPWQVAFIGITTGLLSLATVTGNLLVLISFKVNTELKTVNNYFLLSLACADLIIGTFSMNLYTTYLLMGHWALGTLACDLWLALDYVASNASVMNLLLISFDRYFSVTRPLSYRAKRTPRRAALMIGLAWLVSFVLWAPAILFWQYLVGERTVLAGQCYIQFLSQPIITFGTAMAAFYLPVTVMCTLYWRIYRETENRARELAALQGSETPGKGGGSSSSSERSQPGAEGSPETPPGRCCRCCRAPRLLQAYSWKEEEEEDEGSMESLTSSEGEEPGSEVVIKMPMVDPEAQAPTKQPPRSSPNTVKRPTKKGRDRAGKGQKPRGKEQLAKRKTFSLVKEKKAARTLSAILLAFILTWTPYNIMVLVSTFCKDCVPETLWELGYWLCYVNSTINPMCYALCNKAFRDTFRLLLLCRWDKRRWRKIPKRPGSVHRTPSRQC

[3] = molecular target: Gamma-aminobutyric acid receptor subunit alpha-1/alpha-2/beta-2/gamma-2 (Homo sapiens, UniProt P14867+P18507+P47869+P47870); assay type: protein-complex assay
[4] = molecular target: T4, Alpha-2A adrenergic receptor (Homo sapiens, UniProt P08913)
T4 sequence (P08913 whole entry): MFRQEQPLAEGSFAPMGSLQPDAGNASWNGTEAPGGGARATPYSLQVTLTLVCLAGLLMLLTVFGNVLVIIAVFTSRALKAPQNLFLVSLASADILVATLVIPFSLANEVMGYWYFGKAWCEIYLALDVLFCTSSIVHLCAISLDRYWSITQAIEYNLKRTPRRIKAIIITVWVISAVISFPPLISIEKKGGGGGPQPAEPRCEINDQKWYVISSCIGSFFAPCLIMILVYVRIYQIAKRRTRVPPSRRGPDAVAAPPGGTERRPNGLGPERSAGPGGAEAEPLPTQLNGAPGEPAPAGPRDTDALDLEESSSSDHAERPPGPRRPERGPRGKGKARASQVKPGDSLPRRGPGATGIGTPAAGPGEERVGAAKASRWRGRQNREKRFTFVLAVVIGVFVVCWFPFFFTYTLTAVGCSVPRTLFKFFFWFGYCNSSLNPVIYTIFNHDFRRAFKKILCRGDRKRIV

[5] = molecular target: T3, Muscarinic acetylcholine receptor M1; assay type: functional, cell-based; remark: listed apart in the source
[6] = molecular target: Gamma-aminobutyric acid receptor subunit alpha-1 (Rattus norvegicus, UniProt P62813)
D(1A) dopamine receptor = D(1A) dopamine receptor (Homo sapiens, UniProt P21728)
Histamine H3 receptor = Histamine H3 receptor (Homo sapiens, UniProt Q9Y5N1)
Also: assay procedure not described here.

Sequence of Gamma-aminobutyric acid receptor subunit alpha-1/alpha-2/beta-2/gamma-2 (P14867 whole entry): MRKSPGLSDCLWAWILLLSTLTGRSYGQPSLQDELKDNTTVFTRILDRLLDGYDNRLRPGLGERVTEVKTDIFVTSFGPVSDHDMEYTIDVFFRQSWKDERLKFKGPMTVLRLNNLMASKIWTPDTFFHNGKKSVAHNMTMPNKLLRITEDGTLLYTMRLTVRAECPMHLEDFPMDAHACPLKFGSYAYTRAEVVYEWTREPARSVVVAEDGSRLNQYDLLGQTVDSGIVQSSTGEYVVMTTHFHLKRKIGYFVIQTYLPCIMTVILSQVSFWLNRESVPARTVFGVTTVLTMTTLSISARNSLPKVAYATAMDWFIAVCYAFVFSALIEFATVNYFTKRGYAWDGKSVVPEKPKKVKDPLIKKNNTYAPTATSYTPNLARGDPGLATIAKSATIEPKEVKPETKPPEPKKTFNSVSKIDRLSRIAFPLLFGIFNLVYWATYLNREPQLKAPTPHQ
Sequence of Gamma-aminobutyric acid receptor subunit alpha-1/alpha-2/beta-2/gamma-2 (P47870 whole entry): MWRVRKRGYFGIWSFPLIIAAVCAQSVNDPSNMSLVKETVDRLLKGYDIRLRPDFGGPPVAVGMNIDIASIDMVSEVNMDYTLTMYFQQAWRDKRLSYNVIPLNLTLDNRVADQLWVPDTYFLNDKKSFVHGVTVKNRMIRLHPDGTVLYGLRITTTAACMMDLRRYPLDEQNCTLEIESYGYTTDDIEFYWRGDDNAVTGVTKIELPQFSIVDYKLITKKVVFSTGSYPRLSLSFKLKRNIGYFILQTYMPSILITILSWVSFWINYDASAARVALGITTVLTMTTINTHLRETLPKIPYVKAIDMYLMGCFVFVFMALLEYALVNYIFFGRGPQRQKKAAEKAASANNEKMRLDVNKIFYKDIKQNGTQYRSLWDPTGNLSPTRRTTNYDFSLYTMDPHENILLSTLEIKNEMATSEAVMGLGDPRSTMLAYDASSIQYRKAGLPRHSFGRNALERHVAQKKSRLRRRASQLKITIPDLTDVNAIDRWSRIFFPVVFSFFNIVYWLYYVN
Sequence of Gamma-aminobutyric acid receptor subunit alpha-1/alpha-2/beta-2/gamma-2 (P18507 whole entry): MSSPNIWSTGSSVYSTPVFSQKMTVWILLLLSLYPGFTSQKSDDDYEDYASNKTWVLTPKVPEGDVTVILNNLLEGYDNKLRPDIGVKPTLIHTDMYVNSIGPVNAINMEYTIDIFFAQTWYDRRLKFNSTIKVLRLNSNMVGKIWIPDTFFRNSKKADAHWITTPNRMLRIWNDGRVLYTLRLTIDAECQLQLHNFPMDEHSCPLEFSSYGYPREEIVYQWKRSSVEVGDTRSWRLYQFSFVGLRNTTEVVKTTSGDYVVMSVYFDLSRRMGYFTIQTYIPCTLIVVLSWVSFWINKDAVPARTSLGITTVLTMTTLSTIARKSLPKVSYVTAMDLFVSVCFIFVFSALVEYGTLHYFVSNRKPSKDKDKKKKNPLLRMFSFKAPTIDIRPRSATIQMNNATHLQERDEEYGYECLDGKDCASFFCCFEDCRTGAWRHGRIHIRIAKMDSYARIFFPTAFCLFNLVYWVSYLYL
Sequence of Gamma-aminobutyric acid receptor subunit alpha-1/alpha-2/beta-2/gamma-2 (P47869 whole entry): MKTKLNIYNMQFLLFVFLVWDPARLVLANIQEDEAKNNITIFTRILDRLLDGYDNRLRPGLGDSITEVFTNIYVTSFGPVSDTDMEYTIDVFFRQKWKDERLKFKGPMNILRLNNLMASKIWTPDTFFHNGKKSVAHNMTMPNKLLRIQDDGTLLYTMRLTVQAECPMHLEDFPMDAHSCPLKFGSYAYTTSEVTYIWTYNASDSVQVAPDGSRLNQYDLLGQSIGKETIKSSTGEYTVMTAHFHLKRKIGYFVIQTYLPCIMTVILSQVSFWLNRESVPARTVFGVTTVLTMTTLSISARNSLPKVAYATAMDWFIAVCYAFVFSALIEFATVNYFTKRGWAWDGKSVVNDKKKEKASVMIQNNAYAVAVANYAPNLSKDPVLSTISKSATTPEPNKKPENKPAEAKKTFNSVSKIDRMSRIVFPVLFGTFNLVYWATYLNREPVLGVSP
Sequence of D(1A) dopamine receptor (P21728 whole entry): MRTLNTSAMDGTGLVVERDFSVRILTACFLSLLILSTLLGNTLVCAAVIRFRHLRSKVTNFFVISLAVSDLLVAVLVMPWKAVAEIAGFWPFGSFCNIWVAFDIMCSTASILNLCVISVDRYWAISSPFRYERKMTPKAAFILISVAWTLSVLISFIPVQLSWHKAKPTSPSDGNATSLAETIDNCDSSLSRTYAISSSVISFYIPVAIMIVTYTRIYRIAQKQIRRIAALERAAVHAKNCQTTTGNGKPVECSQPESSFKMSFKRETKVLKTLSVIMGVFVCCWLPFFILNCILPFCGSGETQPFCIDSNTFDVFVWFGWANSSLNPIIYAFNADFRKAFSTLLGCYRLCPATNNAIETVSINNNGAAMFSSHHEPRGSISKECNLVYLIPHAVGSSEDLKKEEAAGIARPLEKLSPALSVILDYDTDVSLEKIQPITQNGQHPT
Sequence of Histamine H3 receptor (Q9Y5N1 whole entry): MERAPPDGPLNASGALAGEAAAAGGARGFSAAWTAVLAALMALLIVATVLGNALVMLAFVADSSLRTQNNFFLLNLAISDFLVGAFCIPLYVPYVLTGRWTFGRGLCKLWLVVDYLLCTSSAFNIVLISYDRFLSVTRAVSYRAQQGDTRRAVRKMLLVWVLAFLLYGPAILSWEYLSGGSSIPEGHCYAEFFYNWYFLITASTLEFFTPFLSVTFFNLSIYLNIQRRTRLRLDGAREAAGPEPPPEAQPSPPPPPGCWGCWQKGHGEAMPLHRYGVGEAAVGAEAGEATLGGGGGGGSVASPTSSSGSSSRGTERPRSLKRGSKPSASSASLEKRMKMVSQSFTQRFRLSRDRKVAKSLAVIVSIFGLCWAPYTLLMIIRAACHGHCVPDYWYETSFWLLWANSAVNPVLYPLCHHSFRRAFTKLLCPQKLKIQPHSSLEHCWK
Sequence of Gamma-aminobutyric acid receptor subunit alpha-1 (P62813 whole entry): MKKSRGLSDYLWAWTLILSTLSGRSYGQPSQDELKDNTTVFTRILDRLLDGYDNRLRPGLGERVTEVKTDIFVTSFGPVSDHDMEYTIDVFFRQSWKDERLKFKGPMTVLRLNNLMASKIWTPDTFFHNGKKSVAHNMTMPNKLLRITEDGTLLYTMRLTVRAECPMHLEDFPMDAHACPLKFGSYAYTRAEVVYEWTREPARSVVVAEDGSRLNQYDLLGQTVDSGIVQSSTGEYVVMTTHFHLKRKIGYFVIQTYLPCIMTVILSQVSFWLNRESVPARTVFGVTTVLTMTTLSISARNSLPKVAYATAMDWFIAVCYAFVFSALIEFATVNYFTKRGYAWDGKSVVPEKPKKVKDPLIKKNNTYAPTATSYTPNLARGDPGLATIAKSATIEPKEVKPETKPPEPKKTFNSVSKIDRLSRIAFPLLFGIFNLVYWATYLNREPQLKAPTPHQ

| SMILES | AC50 (Androgen receptor) | AC50 [1] | AC50 [2] | AC50 [3] | AC50 [4] | AC50 [5] | AC50 [6] | AC50 (D(1A) dopamine receptor) | AC50 (Histamine H3 receptor) |
| --- | --- | --- | --- | --- | --- | --- | --- | --- | --- |
| COCC(=O)O[C@]1(CCN(C)CCCc2nc3ccccc3[nH]2)CCc2cc(F)ccc2[C@@H]1C(C)C [MIBEFRADIL] | > 30 µM | 25.9 µM | 17.7 µM | > 10 µM | 23.4 µM | > 3 µM | > 30 µM | 10.1 µM | > 30 µM |
| CC(C)N1CCOC(c2cccc(C(F)(F)F)c2)C1 (stereo unspecified) [OXAFLOZANE] | > 30 µM | > 30 µM | > 30 µM | > 30 µM | > 30 µM | > 30 µM | – | > 30 µM | > 30 µM |
| CN1C(C(=O)Nc2ccccn2)=C(OC(=O)/C=C/c2ccccc2)c2ccccc2S1(=O)=O [PIROXICAM CINNAMATE] | > 30 µM | > 30 µM | > 30 µM | > 30 µM | > 30 µM | > 30 µM | – | > 30 µM | > 30 µM |
| Cc1cn(-c2cc(NC(=O)c3ccc(C)c(Nc4nccc(-c5cnccn5)n4)c3)cc(C(F)(F)F)c2)cn1 [RADOTINIB] | > 30 µM | > 30 µM | > 30 µM | > 30 µM | > 30 µM | > 30 µM | – | > 30 µM | > 30 µM |
| COC(=O)N(C)c1c(N)nc(-c2nn(Cc3ccccc3F)c3ncccc23)nc1N [RIOCIGUAT] | > 30 µM | > 30 µM | > 30 µM | > 30 µM | > 30 µM | > 30 µM | – | > 30 µM | > 30 µM |
